In US12558376B2, “Tissue repair by activated cells” (TECHNION RESEARCH & DEVELOPMENT FOUNDATION LIMITED, priority 2018, dated 2026):

How the values were obtained:
[1] = tested on: mesenchymal stem cells (MSCs); experiment: Cytokine array of MSC conditioned medium (secretome); assay type: cell-based, human; conditions: gemcitabine-activated vs untreated MSCs
Protocol: Human bone marrow MSCs (LONZA, Switzerland) were cultured in minimum essential medium-alpha (αMEM) supplemented with 10% FBS 1% L-glutamine, 1% sodium-pyruvate, and 1% streptomycin. Medium was replaced every 3 days, and cells were maintained in culture for up to 7 passages.
After 72 hours, CM was collected.
The signals corresponding to each factor in the array were quantified by densitometry analysis.

PANC1 tumors = experiment: Subcutaneous PANC1 tumors treated with gemcitabine: MSC homing; assay type: in vivo; conditions: PANC1 tumors in SCID mice, gemcitabine 500 mg/kg, after 72 hours; for MSC homing to tumors and proximity to CSCs (immunostaining): vs untreated control
Protocol: Eight-to-ten-week-old SCID mice were subcutaneously implanted with PANC1 cells (n=5 mice/group). […] Nuclei were stained with DAPI (blue). Red arrows represent CSCs whereas white arrows represent MSCs. Scale bar, 100 μm. FIG. 1B: Right Left side is a graph showing the distance between MSCs and CSCs as was measured and plotted (n>15 fields/group) and FIG. 1B left-right side is a graph showing the percentage of MSCs in tumor single cell suspensions was quantified by flow cytometry. […] After 3 days, the percentage of TICs in culture was assessed by flow cytometry. The use of animals and experimental protocols were approved by the Animal Care and Use Committee of the Technion. Human PANC1 (5×10^6 cells) were subcutaneously injected into the flank of eight-to-ten-week-old CB.17 female SCID mice (Harlan, Israel). Tumor size was assessed regularly with Vernier calipers using the formula width^2×length×0.5. […] Tumors or […] were embedded in […], Japan) and subsequently frozen at -80° C. […] Sections were fixed in cold acetone for 15 minutes. CSCs were stained with PE-conjugated antibodies against human prominin-1 (CD133, 1:250, Macs MiltenyiBiotec). […] Tumor sections were analyzed with a camera attached to an inverted microscope (Leica CTR 6000) using Leica Application suite Version 3.4.0 software or a LSM 700 Zeiss confocal microscope (Zeiss, Germany). Nuclei were stained with DAPI (Electron Microscopy Sciences, PA, USA).

Nc1ccn([C@@H]2O[C@H](CO)[C@@H](O)C2(F)F)c(=O)n1 [gemcitabine]
CXCL10 secretion in conditioned medium of MSCs [1]: highly elevated
recruitment of MSCs to pancreatic tumors (percentage of MSCs, flow cytometry) (PANC1 tumors): massive recruitment of MSCs
MSC homing to tumors and proximity to CSCs (immunostaining) (PANC1 tumors): MSCs home to tumors and locate in close proximity to CSCs
MSC homing to tumors and proximity to CSCs (immunostaining) (PANC1 tumors; listed as Gemcitabine): promotes MSCs homing to tumors
